Reference: paper PMC12002301, “Discovery and functional characterization of a bombesin-type neuropeptide signaling system in an invertebrate” (Proceedings of the National Academy of Sciences of the …, 2025)

System: tube foot preparations
Assay: In vitro contraction of tube foot preparations
Set-up: species or system Asterias rubens
Details: words, ArBN 10^-9 to 10^-6 M
Description: ArBN (EPRRNYNRVFGPTY-NH2), ArBN5-14 (NYNRVFGPTY-NH2), and ArBNP65-81 (EPMPSSLALYIANLSP-NH2), were tested for effects on in vitro cardiac stomach and tube foot preparations from A. rubens. The preparations were dissected as described previously ([43], [59]–[61]), with the organs immersed in ice-cold artificial seawater during dissection. A description of the methods employed for investigation of in vitro effects of ArBN on cardiac stomach and tube foot preparations from A. rubens is included in SI Appendix, SI Methods. […]
Wax was removed from slides using xylene (3 × 10 min) and then slides were immersed in 100% ethanol (2 × 10 min). 0.3% hydrogen peroxide (VWR Chemicals, UK) in methanol was used to quench endogenous peroxidases for 30 min and then an ethanol series (90%, 70%, 50%), distilled water and PBST were used to rehydrate the tissue sections. 5% goat serum (Sigma-Aldrich, UK) made up in PBST was used for blocking for 2 h at room temperature. […]
All the dissected preparations were set up in an aerated organ bath filled with 20 ml artificial seawater maintained at approximately 11°C. Changes in the contractile state of preparations were detected by the transducer, which was linked via a bridge amplifier (FE221 Bridge Amp, ADInstruments Ltd, Oxford, UK) to data acquisition hardware (PowerLab 2/36, ADInstruments Ltd, Oxford, UK). […]

| Substance | effect on tube foot preparations |
| --- | --- |
| EPMPSSLALYIANLSP-NH2 [ArBNP65-81, C-terminally amidated 16-residue peptide predicted to be derived from residues 65 to 81 of ArBNP] | neither ArBN5-14 nor ArBNP65-81 had any observable effect |
| NYNRVFGPTY-NH2 [ArBN5-14, C-terminally amidated 10-residue peptide corresponding to the C-terminal region of ArBN] | neither ArBN5-14 nor ArBNP65-81 had any observable effect |
